Measured values taken from patent EP2966448B1, “METHOD FOR THE PREDICTION OR PROGNOSIS OF THE RESPONSE OF A HUMAN SUBJECT SUFFERING FROM CANCER TO TREATMENT WITH AN ANTAGONIST OF THE NK1 RECEPTOR” (priority 2013, dated 2014).
Where two headings read alike, the source gives them in different places.

What was measured:
[1] = test system: Endometrium carcinoma; assay: Inhibition of primary tumor cell cultures vs Kras mutation (Example 2); format: cell-based, human; conditions: Homo sapiens, 100 micromolar, read-out: Percentage of inhibition of cell cultures
Description: Cell cultures. […] Briefly, small pieces of the tumors were digested into a hyaluronidase solution (Sigma-Aldrich, USA) at a concentration of 1 mg/ml during 15 minutes at 37°C, and then they were treated with 6 mg/ml of collagenase type IV (Invitrogen) during 2 hours at 37°C. Consecutively, cells were washed, and resuspended in the DMEM culture medium with high concentration of glucose (Dulbecco's Modified Eagle's Medium, Invitrogen) supplemented with 1% of antibiotics-antimycotics (Invitrogen) and with 1% of sodium pyruvate (Invitrogen), and the cells were seeded in culture slides at a concentration of 10.000 cells per square centimeter. When cells reached confluence, the adherent cells were separated using sterile trypsin at 0,5% (Invitrogen) and they were used among passages 3 and 9. For the assays shown next, tumor cells were seeded on slides at a concentration of 25.000 cells per well. A total of 6 wells containing the tumor cells were used as survival control. […] All the cultures were kept during 48 hours and later on recollected for their analysis.
(§1) In each case the presence or not of mutations in K-ras gene was determined.
(§2) To determine the existence of mutations in the K-ras gene DNA from cancer tumor cells was extracted from samples obtained from the different cancer tumor cells, using DNA extraction kits from Takara (Madison, WI, US) or Ambion (Huntingdon, Cambridgeshire, United Kingdom), following the manufacturer's instructions, and as it has been previously published (Di Fiore F, et al. 2007). Consecutively it was analyzed by sequencing the exon 2 of the KRAS gene, , by means of PCR amplification from previously extracted cancer tumor DNA, using the following sense primer (SEQ ID NO. 15): 5'-[sequence]-3' and anti-sense primer (SEQ ID NO. 16): 5'-[sequence]-3'. After the purification using the Qiagen extraction kit, the PCR products were sequenced using the Big Dye Terminator Kit V3.1 (Applied Biosystems, Foster City, CA, U.S.) and an ABI Prism 377 or 3100 DNA sequencer (Applied Biosystems). The presence of a heterozygous mutation in the KRAS gene in cancer tumor cells of the cultures was defined as the appearance of a mutant peak of a height of at least a third of the wild type. All the sequence analysis were executed at least twice in two independent PCR.
(§3) The antibody against NK1 receptor (Table 16) was used at 1/50 concentration. The percentages of inhibition are expressed in percentage of variation in relation to control ± standard deviation.

[2] = test system: Renal cell carcinoma (clear cell renal cell carcinoma); assay: as above; format: cell-based, human; conditions: Homo sapiens, 100 micromolar, read-out: Percentage of inhibition of cell cultures
Description: (§4) Cell cultures. To obtain tumor cells from human primary tumors we used the method described in De Bari et al. (De Bari et al. 2001). Briefly, small pieces of the tumors were digested into a hyaluronidase solution (Sigma-Aldrich, USA) at a concentration of 1 mg/ml during 15 minutes at 37°C, and then they were treated with 6 mg/ml of collagenase type IV (Invitrogen) during 2 hours at 37°C. Consecutively, cells were washed, and resuspended in the DMEM culture medium with high concentration of glucose (Dulbecco's Modified Eagle's Medium, Invitrogen) supplemented with 1% of antibiotics-antimycotics (Invitrogen) and with 1% of sodium pyruvate (Invitrogen), and the cells were seeded in culture slides at a concentration of 10.000 cells per square centimeter. When cells reached confluence, the adherent cells were separated using sterile trypsin at 0,5% (Invitrogen) and they were used among passages 3 and 9. For the assays shown next, tumor cells were seeded on slides at a concentration of 25.000 cells per well. A total of 6 wells containing the tumor cells were used as survival control. […] All the cultures were kept during 48 hours and later on recollected for their analysis.
as §1, §2, §3

[3] = test system: Glioma; assay: Inhibition of primary tumor cell cultures (48 hours) vs NK1 receptor immunostaining (Example 1); format: cell-based; conditions: Homo sapiens, 1 micromolar, read-out: Percentage of inhibition of cell cultures
Description: as §4
(§5) Immunohistochemistry techniques. The presence of NK1 receptors was also analyzed using immunohistochemistry techniques. Briefly, a sample of each of the cultures of the cell lines used in the present invention, was centrifuged (5 minutes at 1.500 rpm) and the pellet obtained was dehydrated using increasing concentrations of ethanol and, finally, xylol. Then, said dehydrated samples were embedded in paraffin, creating a block of cells. Such paraffin blocks were cut with a microtome at 5 microns thickness, and were placed on microscope slides adequate to perform immunohistochemistry techniques. Consecutively, they were de-paraffinized by immersing them in xylol, to be finally hydrated using a solution containing decreasing concentrations of ethanol, and finally submerged them into water. […] After this, the samples were left to cool down at room temperature for 10 minutes. The endogenous peroxidase activity was blocked with 3% peroxide of hydrogen for 30 minutes at room temperature. After washing the samples with 0.05 M of Tris buffer, they were incubated with 10% non-immune pork serum at for 30 minutes at room temperature. To analyze the expression of NK1 receptors, the cellular samples were incubated in the presence of anti-NK1 antibodies (S8305, Sigma-Aldrich) diluted 1:1000, overnight at 4°C. Afterwards, the samples were washed in Tris buffer 0.05 M at room temperature. The next step was the addition of Envision System-HRP (Dako) reagents for 30 minutes at room temperature. Then, the samples were washed again in Tris buffer 0.05 M and the immunoreactivity was visualized through light microscopy with a chromogenic solution containing 3,3'-Diaminobenzidine (DAB+; Dako, USA). To differentiate the cell nuclei, they were slightly stained with hematoxylin. As negative control, it was used samples not incubated with the primary antibody anti-NK1, which was replaced by non-immune serum. All the samples were evaluated.
(§6) To value the immunostaining in each of the cases six cuts were performed to be analyzed by the immunohistochemistry technique. In each of the six cuts, it was counted cells in 20 fields (magnification 400x) using an Olympus microscope (model CX31). In each field it was counted the total number of cells and the number of cells presenting immunostaining, calculating afterwards the percentage of cells which presented immunostaining.

[4] = test system: Gastric carcinoma; assay: as above; format: cell-based; conditions: Homo sapiens, 1 micromolar, read-out: Percentage of inhibition of cell cultures
Description: as §4, §5, §6

[5] = test system: human primary tumor cells; assay: Inhibition of primary tumor cell cultures vs low or high expression of the truncated form of NK1 receptor (Example 5; tumor type per table line); format: cell-based; conditions: for Percentage of inhibition of cell cultures: 100 micromolar
Description: as §4
The presence of the truncated form of NK1 receptor was determined and then cells were cultured in presence of several antagonists of the NK1 receptor.
In each case the presence of the truncated form of the NK1 receptor was determined.
To determine the presence of the truncated form of the gene of NK1 receptor PCR technique was performed (Polymerase Chain Reaction). The extraction of RNA, amplifications of PCR, cycle conditions and quantitative analysis were executed as it has been previously described. The specific primers were the following: For the full-length NK1R receptor (NM_001058.3; forward (SEQ ID NO: 17)-: 5'-[sequence]-3 ' and reverse- (SEQ ID NO:18): 5'-[sequence]-3') and for the truncated NK1receptor (NM_015727.2; forward (SEQ ID NO: 19): 5'-[sequence]-3 and reverse (SEQ ID NO;20): 5'-[sequence]-3').
Cases were distributed in two groups: • Group A -low expression of the truncated form of NK1 receptor- for those cases wherein the expression of the truncated form of NK1 receptor was less than double the expression of the full length form of such receptor. • Group B -high expression of the truncated form of NK1 receptor- for those cases wherein the expression of the truncated form of the NK1 receptor was higher than double the expression of the full length form of such receptor.
The percentages of inhibition are expressed in percentage of variation in relation to the control ± standard deviation.

[6] = test system: Lung carcinoma (small cell type); assay: Inhibition of primary tumor cell cultures (48 hours) vs NK1 receptor immunostaining (Example 1); format: cell-based; conditions: Homo sapiens, 1 micromolar, read-out: Percentage of inhibition of cell cultures
Description: as §4, §5, §6

[7] = test system: Burkitt Lymphoma; assay: Inhibition of primary tumor cell cultures vs Kras mutation (Example 2); format: cell-based, human; conditions: Homo sapiens, 100 micromolar, read-out: Percentage of inhibition of cell cultures
Description: as §4, §1, §2, §3

[8] = test system: Non Hodgkin Lymphoma T; assay: Inhibition of primary tumor cell cultures (48 hours) vs NK1 receptor immunostaining (Example 1); format: cell-based; conditions: Homo sapiens, 1 micromolar, read-out: Percentage of inhibition of cell cultures
Description: as §4, §5, §6

[9] = test system: Ewing Sarcoma; assay: as above; format: cell-based; conditions: Homo sapiens, 1 micromolar, read-out: Percentage of inhibition of cell cultures
Description: as §4, §5, §6

[10] = test system: Breast carcinoma; assay: as above; format: cell-based; conditions: Homo sapiens, 1 micromolar, read-out: Percentage of inhibition of cell cultures
Description: as §4, §5, §6

[11] = Cases with Kras non-mutated (wild type)
[12] = NK1 receptor immunostaining Group 1 (less than 20% of the cells)
[13] = NK1 receptor immunostaining Group 2 (20-80% of the cells)
[14] = NK1 receptor immunostaining Group 3 (more than 80% of the cells)
[15] = NK1 receptor immunostaining Intensity grade 1
[16] = NK1 receptor immunostaining Intensity grade 2
[17] = NK1 receptor immunostaining Intensity grade 3

With `CC(=O)N1CCN([C@H]2CCN(C(=O)N(C)[C@H](C)c3cc(C(F)(F)F)cc(C(F)(F)F)c3)[C@@H](c3ccc(F)cc3C)C2)CC1` [Casopitant] the inhibition at 100 µM ([1]; Cases with Kras mutated) was 28 ± 2%, the inhibition at 100 µM [1, 11] was 94 ± 4% and the inhibition at 100 µM ([2]; Cases with Kras mutated) was 27 ± 4%. It also gave an inhibition at 100 µM [2, 11] of 94 ± 3%, an inhibition at 1 µM [3, 12] of 16 ± 3% and an inhibition at 1 µM [3, 13] of 46 ± 4%. It also gave an inhibition at 1 µM [3, 14] of 93 ± 5%, an inhibition at 1 µM [3, 15] of 36 ± 3% and an inhibition at 1 µM [3, 16] of 54 ± 5%. For the same compound, the inhibition at 1 µM [3, 17] was 91 ± 3%, the inhibition at 1 µM [4, 12] was 12 ± 4% and the inhibition at 1 µM [4, 13] was 46 ± 2%. For the same compound, the inhibition at 1 µM [4, 14] was 90 ± 2%, the inhibition at 1 µM [4, 15] was 31 ± 3% and the inhibition at 1 µM [4, 16] was 53 ± 3%. For the same compound, the inhibition at 1 µM [4, 17] was 91 ± 3%, the “Percentage of inhibition of cell cultures” value ([5]; Glioma (astrocytoma), Cases with high expression of the truncated form of NK1 receptor (Group B)) was 95±7 percentage and the “Percentage of inhibition of cell cultures” value ([5]; Glioma (astrocytoma), Cases with low expression of the truncated form of NK1 receptor (Group A)) was 24±5 percentage. The “Percentage of inhibition of cell cultures” value ([5]; Lung carcinoma (non small cell lung carcinoma), Cases with high expression of the truncated form of NK1 receptor (Group B)) was 95±6 percentage, the “Percentage of inhibition of cell cultures” value ([5]; Lung carcinoma (non small cell lung carcinoma), Cases with low expression of the truncated form of NK1 receptor (Group A)) was 25±4 percentage and the “Percentage of inhibition of cell cultures” value ([5]; Melanoma (Nodular Melanoma), Cases with high expression of the truncated form of NK1 receptor (Group B)) was 96±6 percentage. For the same compound, the “Percentage of inhibition of cell cultures” value ([5]; Melanoma (Nodular Melanoma), Cases with low expression of the truncated form of NK1 receptor (Group A)) was 23±5 percentage, the “Percentage of inhibition of cell cultures” value ([5]; Non Hodgkin Lymphoma B (diffuse B cell lymphoma), Cases with high expression of the truncated form of NK1 receptor (Group B)) was 97±4 percentage and the “Percentage of inhibition of cell cultures” value ([5]; Non Hodgkin Lymphoma B (diffuse B cell lymphoma), Cases with low expression of the truncated form of NK1 receptor (Group A)) was 24±3 percentage. The “Percentage of inhibition of cell cultures” value ([5]; Non Hodgkin Lymphoma T (diffuse T cell lymphoma), Cases with high expression of the truncated form of NK1 receptor (Group B)) was 98±3 percentage, the “Percentage of inhibition of cell cultures” value ([5]; Non Hodgkin Lymphoma T (diffuse T cell lymphoma), Cases with low expression of the truncated form of NK1 receptor (Group A)) was 23±4 percentage and the “Percentage of inhibition of cell cultures” value ([5]; Prostate carcinoma, Cases with high expression of the truncated form of NK1 receptor (Group B)) was 94±4 percentage. The “Percentage of inhibition of cell cultures” value ([5]; Prostate carcinoma, Cases with low expression of the truncated form of NK1 receptor (Group A)) was 23±6 percentage, the “Percentage of inhibition of cell cultures” value ([5]; Thyroid carcinoma (follicular carcinoma), Cases with high expression of the truncated form of NK1 receptor (Group B)) was 93±4 percentage and the “Percentage of inhibition of cell cultures” value ([5]; Thyroid carcinoma (follicular carcinoma), Cases with low expression of the truncated form of NK1 receptor (Group A)) was 23±3 percentage. The “Percentage of inhibition of cell cultures” value ([5]; Thyroid carcinoma (papillary carcinoma), Cases with high expression of the truncated form of NK1 receptor (Group B)) was 94±5 percentage, the “Percentage of inhibition of cell cultures” value ([5]; Thyroid carcinoma (papillary carcinoma), Cases with low expression of the truncated form of NK1 receptor (Group A)) was 24±5 percentage and the “Percentage of inhibition of cell cultures” value ([5]; Undifferentiated Pleomorphic Sarcoma (malignant fibrous histiocytoma grade 3), Cases with high expression of the truncated form of NK1 receptor (Group B)) was 94±5 percentage. For the same compound, the “Percentage of inhibition of cell cultures” value ([5]; Undifferentiated Pleomorphic Sarcoma (malignant fibrous histiocytoma grade 3), Cases with low expression of the truncated form of NK1 receptor (Group A)) was 25±4 percentage, the “Percentage of inhibition of cell cultures” value ([5]; Urinary bladder carcinoma (transitional cell carcinoma), Cases with high expression of the truncated form of NK1 receptor (Group B)) was 95±7 percentage and the “Percentage of inhibition of cell cultures” value ([5]; Urinary bladder carcinoma (transitional cell carcinoma), Cases with low expression of the truncated form of NK1 receptor (Group A)) was 25±4 percentage. For the same compound, the “inhibition of cell proliferation” value ([5]; cancer cell cultures that show more expression of the truncated form of NK1 receptor, compared, non-peptidic antagonists 100 micromolar, antibody 1/50) was “higher inhibition”, the inhibition at 1 µM [6, 12] was 12 ± 2% and the inhibition at 1 µM [6, 13] was 45 ± 2%. For the same compound, the inhibition at 1 µM [6, 14] was 93 ± 4%, the inhibition at 1 µM [6, 15] was 33 ± 2% and the inhibition at 1 µM [6, 16] was 55 ± 3%. The inhibition at 1 µM [6, 17] was 94 ± 4%, the inhibition at 100 µM ([7]; Cases with Kras mutated) was 25 ± 2% and the inhibition at 100 µM [7, 11] was 92 ± 5%. For the same compound, the inhibition at 1 µM [8, 12] was 14 ± 2%, the inhibition at 1 µM [8, 13] was 46 ± 6% and the inhibition at 1 µM [8, 14] was 94 ± 5%. The inhibition at 1 µM [8, 15] was 36 ± 5%, the inhibition at 1 µM [8, 16] was 54 ± 5% and the inhibition at 1 µM [8, 17] was 92 ± 2%. For the same compound, the inhibition at 1 µM [9, 12] was 15 ± 2%, the inhibition at 1 µM [9, 13] was 47 ± 5% and the inhibition at 1 µM [9, 14] was 93 ± 5%. For the same compound, the inhibition at 1 µM [9, 15] was 33 ± 4%, the inhibition at 1 µM [9, 16] was 54 ± 3% and the inhibition at 1 µM [9, 17] was 92 ± 4%. It also gave an inhibition at 1 µM [10, 12] of 15 ± 3%, an inhibition at 1 µM [10, 13] of 47 ± 4% and an inhibition at 1 µM [10, 14] of 92 ± 3%. The inhibition at 1 µM [10, 15] was 35 ± 3% and the inhibition at 1 µM [10, 16] was 56 ± 6%.
